# Key:
# [1] = biological target: T1, 3-oxo-5-alpha-steroid 4-dehydrogenase 1 (Homo sapiens, UniProt P18405); test: In vitro inhibition of DHT production in Hs 68 (human genital fibroblast) cells.
# T1 sequence (P18405 whole entry): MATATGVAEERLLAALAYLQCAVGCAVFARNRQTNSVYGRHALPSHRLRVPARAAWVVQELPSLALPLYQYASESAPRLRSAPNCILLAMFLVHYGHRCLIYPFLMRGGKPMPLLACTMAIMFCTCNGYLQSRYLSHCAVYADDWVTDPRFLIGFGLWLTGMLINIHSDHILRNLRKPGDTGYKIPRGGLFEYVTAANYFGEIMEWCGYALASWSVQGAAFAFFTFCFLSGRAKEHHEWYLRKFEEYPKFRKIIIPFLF
# [2] = biological target: T1, 3-oxo-5-alpha-steroid 4-dehydrogenase 1; test: Compound was tested for inhibition of Type I 5-alpha-reductase in Human genital skin (Hs68) foreskin fibroblast cells.; type: cell-based
# [3] = biological target: T2, 3-oxo-5-alpha-steroid 4-dehydrogenase 2 (Homo sapiens, UniProt P31213); test: Compound was tested for inhibition of Type II 5-alpha-reductase in Human Prostate Homogenates (HPH)
# T2 sequence (P31213 whole entry): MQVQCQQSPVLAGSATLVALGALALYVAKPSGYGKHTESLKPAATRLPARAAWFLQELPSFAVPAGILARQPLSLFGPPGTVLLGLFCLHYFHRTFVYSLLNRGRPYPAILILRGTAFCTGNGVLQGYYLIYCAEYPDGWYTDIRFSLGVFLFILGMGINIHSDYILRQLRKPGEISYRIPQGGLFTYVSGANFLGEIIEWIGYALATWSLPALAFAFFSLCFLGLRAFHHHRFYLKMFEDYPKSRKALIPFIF
SMILES,IC50 [1] [nM],IC50 [2] [nM],IC50 [3] [nM]
C[C@]12CCC(=O)N[C@@H]1CCc1cc(Cl)ccc12,1800,,
CN1C(=O)CC[C@@H]2c3ccc(F)cc3CC[C@@H]21,320,,
CN1C(=O)CC[C@@H]2c3ccc(Cl)cc3CC[C@@H]21,41,,
O=C1CCC2=C(CCc3cccc(F)c32)N1,10000,,
CC(C)(C)NC(=O)[C@H]1CC[C@H]2[C@@H]3CC[C@H]4NC(=O)C=C[C@]4(C)[C@H]3CC[C@]12C [FINASTERIDE],,62,
CN1C(=O)CC[C@@H]2c3ccc(Cl)cc3CC[C@H]21 [BEXLOSTERIDE],8,,> 10000
CN1C(=O)CC[C@@H]2c3ccc(F)cc3CC[C@H]21,35,,
CN1C(=O)CC[C@]2(C)c3ccc(Cl)cc3CC[C@@H]12,17,,
COc1ccc2c(c1)CC[C@@H]1[C@@H]2CCC(=O)N1C,120,,
Cc1ccc2c(c1)CC[C@@H]1[C@@H]2CCC(=O)N1C,11,,
CN1C(=O)CCC2=C1CCc1cc(Cl)ccc12,30,,
CN1C(=O)CC[C@@H]2c3ccccc3CC[C@H]21,560,,
O=C1CCC2=C(CCc3cc(Cl)ccc32)N1,460,,
O=C1CCC2=C(CCc3ccc(F)cc32)N1,2300,,
O=C1CC[C@@H]2c3ccc(Cl)cc3CC[C@H]2N1,60,,
O=C1CCC2=C(CCc3c(F)cccc32)N1,3200,,
CN1C(=O)CCC2(C)C1=CCc1cc(Cl)ccc12 (stereo not drawn),120,,
CC(C)(C)NC(=O)[C@H]1CC[C@H]2[C@@H]3CC=C4C=C(C(=O)O)CC[C@]4(C)[C@H]3CC[C@]12C [EPRISTERIDE],7500,,8
O=C1CCC2=C(CCc3ccccc32)N1,6500,,
CC12CCC(=O)NC1=CCc1cc(Cl)ccc12 (stereo not drawn),3600,,
O=C1CCC2=C(CCc3cc(F)ccc32)N1,600,,

# — ChEMBL document CHEMBL1126986, “Nonsteroidal inhibitors of human type I steroid 5-alpha-reductase” (J Med Chem, 1993)
